Data taken from the supplement of paper PMC10307832.

Legend:
Test in all cases: relative viability (nuclei count vs DMSO), 5 days (fraction); higher = more cells survive
VE-821 = compound: CS(=O)(=O)c1ccc(-c2cnc(N)c(C(=O)Nc3ccccc3)n2)cc1 [VE-821]
Outline: (§1)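 Lung cancer cell lines in 1536-well plates were exposed by pinning to five library-drug doses (not always all listed) √10 apart, following an overnight hold at 37 °C. MetaXpress counted Hoechst-stained nuclei from 4× images taken after 5 days without medium change. Viability is the median ratio of treated-well to vehicle-well nuclei across plates. Plates required control CV below 25% and at least one doubling.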

Vismodegib = compound: CS(=O)(=O)c1ccc(C(=O)Nc2ccc(Cl)c(-c3ccccn3)c2)c(Cl)c1 [Vismodegib]
Outline: as §1

Ruxolitinib = compound: N#CC[C@H](C1CCCC1)n1cc(-c2ncnc3[nH]ccc23)cn1 [Ruxolitinib]
Outline: as §1

Cell Line | relative viability (VE-821; 0.08 µM) | relative viability (VE-821; 0.253 µM) | relative viability (VE-821; 0.8 µM) | relative viability (VE-821; 2.53 µM) | relative viability (VE-821; 8 µM) | relative viability (Vismodegib; 0.08 µM) | relative viability (Vismodegib; 0.253 µM) | relative viability (Vismodegib; 0.8 µM) | relative viability (Vismodegib; 2.53 µM) | relative viability (Vismodegib; 8 µM) | relative viability (Ruxolitinib; 0.08 µM) | relative viability (Ruxolitinib; 0.253 µM) | relative viability (Ruxolitinib; 0.8 µM) | relative viability (Ruxolitinib; 2.53 µM) | relative viability (Ruxolitinib; 8 µM)
LC-2-ad | 1.07 | 0.978 | 1.05 | 1.12 | 0.995 | 1 | 0.952 | 0.939 | 0.929 | 0.907 | 0.779 | 0.971 | 1.01 | 0.842 | 0.665
LCLC-97TM1 | 1 | 0.964 | 0.969 | 1.13 | 0.703 | 1 | 0.984 | 0.904 | 0.802 | 0.979 | 0.895 | 0.852 | 0.826 | 0.892 | 0.949
LCLC-103H | 1.07 | 0.915 | 0.952 | 1.21 | 0.891 | 0.967 | 1.04 | 0.92 | 1.01 | 1.02 | 1.04 | 1.01 | 0.993 | 1.05 | 0.956
LK-2 | 1.26 | 0.911 | 0.993 | 1.02 | 0.881 | 1 | 0.842 | 0.861 | 1.02 | 0.899 | 0.928 | 0.949 | 1.13 | 1.02 | 1.09
LOU-NH91 | 1.03 | 0.946 | 0.927 | 1.03 | 0.865 | 0.918 | 0.963 | 0.946 | 0.908 | 0.958 | 0.847 | 0.957 | 1.03 | 0.933 | 0.99
LU99A | 0.987 | 1.01 | 0.962 | 0.998 | 0.464 | 0.989 | 0.899 | 0.964 | 0.819 | 0.922 | 1.06 | 0.997 | 1.08 | 0.816 | 0.777
LXF-289 | 1.06 | 1.1 | 1.09 | 1.06 | 1.14 | 1.02 | 0.989 | 1.03 | 0.988 | 0.902 | 0.965 | 0.996 | 0.938 | 0.944 | 0.919
NCI-H23 | 1.03 | 0.888 | 0.983 | 0.818 | 0.319 | 1.05 | 0.931 | 0.886 | 0.926 | 0.773 | 1.04 | 1.01 | 0.995 | 0.84 | 0.772
NCI-H322M | 0.96 | 0.912 | 0.96 | 0.864 | 0.371 | 0.912 | 0.896 | 0.932 | 0.868 | 0.88 | 0.934 | 0.962 | 1.04 | 1.27 | 1.36
NCI-H358 | 1.05 | 0.964 | 0.936 | 1.08 | 0.803 | 0.945 | 0.989 | 0.973 | 0.911 | 0.921 | 0.848 | 0.921 | 0.889 | 0.537 | 0.63
NCI-H441 | 1.16 | 1.1 | 1.34 | 1.34 | 0.793 | 1.02 | 0.909 | 1.01 | 0.98 | 1.04 | 0.946 | 0.933 | 1.16 | 0.962 | 0.699
NCI-H460 | 1.05 | 0.983 | 0.947 | 0.82 | 0.56 | 1.01 | 0.979 | 1 | 0.981 | 1.03 | 1.03 | 1.06 | 1.07 | 1 | 0.96
NCI-H520 | 1.05 | 0.992 | 0.723 | 1.06 | 0.67 | 0.922 | 0.885 | 0.927 | 0.875 | 1.11 | 1.07 | 0.749 | 1.2 | 0.934 | 0.951
NCI-H522 | 0.974 | 0.938 | 0.934 | 1.06 | 0.849 | 0.973 | 0.876 | 0.957 | 1 | 1.01 | 1.01 | 0.95 | 1.01 | 0.895 | 0.874
NCI-H596 | 0.984 | 0.907 | 0.972 | 0.975 | 1 | 0.986 | 1.02 | 0.898 | 0.932 | 0.952 | 1.09 | 0.98 | 1.12 | 1.09 | 1.07
NCI-H647 | 1.11 | 0.9 | 0.798 | 0.987 | 0.506 | 0.913 | 0.863 | 0.978 | 0.964 | 1.14 | 0.81 | 0.962 | 1.04 | 0.897 | 0.836
NCI-H650 | 1.04 | 0.909 | 1.05 | 1.1 | 0.895 | 0.953 | 0.895 | 0.88 | 0.915 | 0.815 | – | 0.937 | 1.01 | 0.854 | 0.696
NCI-H661 | 0.986 | 0.998 | 0.976 | 0.997 | 0.919 | 0.973 | 0.975 | 0.997 | 0.909 | 1.02 | 0.958 | 0.963 | 1.04 | 1.03 | 0.92
NCI-H727 | 0.894 | 0.884 | 0.958 | 0.911 | 0.446 | 0.891 | 0.931 | 0.804 | 0.988 | 0.81 | 0.934 | 1.02 | 1.11 | 0.904 | 1.36
NCI-H838 | 1.06 | 0.887 | 0.902 | 1.01 | 0.791 | 0.906 | 0.893 | 0.941 | 0.947 | 0.973 | 0.918 | 0.897 | 0.832 | 0.567 | 0.478
NCI-H1299 | 1.02 | 0.971 | 0.987 | 0.997 | 0.941 | 1.04 | 0.973 | 1.02 | 1.03 | 1.02 | 1.04 | 1.01 | 1.01 | 0.974 | 0.866
NCI-H1355 | 1.05 | 0.919 | 0.963 | 1.04 | 0.604 | 0.947 | 0.992 | 0.904 | 0.99 | 0.93 | 1.07 | 0.962 | 0.957 | 0.922 | 0.918
NCI-H1395 | 0.963 | 0.89 | 0.792 | 0.888 | 0.665 | 0.834 | 0.878 | 0.853 | 0.829 | 1 | 0.816 | 0.767 | 1.02 | 0.913 | 0.771
